Experimental data as given in the supplement of paper PMC12533247.
± gives the standard deviation of the averaged measurements.

Key:
[1] = system: HSV-1 K26-GFP infected 3D skin equivalent; assay: % activity on HSV-1 GFP signal (0 = infected DMSO control, -100 = uninfected control); higher = higher signal (negative = inhibition / toxicity); conditions: time (h post infection): 48
Procedure: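 Triplicate dose-response (0.04 to 10 uM) of 11 top compounds in 3D bioprinted skin equivalents (submerged and ALI models) infected with GFP-HSV-1 K26 at MOI 0.1 and fixed at 48 hpi. GFP (virus) and tdTomato (fibroblast viability) signals are normalised to per-plate controls.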

[2] = system: HSV-1 K26-GFP infected primary human skin cells; assay: % change of HSV-1 GFP signal vs untreated infected cells; higher = less antiviral inhibition; conditions: cell type: primary dermal fibroblasts, time (h post infection): 48
Procedure: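 2D primary donor-derived dermal fibroblasts infected with GFP-HSV-1 K26 at MOI 1, treated 1 h later with compound dilutions and read at 48 hpi on IncuCyte. GFP integrated intensity is normalised to mock-infected and untreated infected wells (% change; -100 = full inhibition).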

SMILES | % activity on HSV-1 GFP signal ([1]; 0.041152 µM, model: ALI) | % activity on HSV-1 GFP signal ([1]; 0.041152 µM, model: submerged) | % activity on HSV-1 GFP signal ([1]; 0.123457 µM, model: ALI) | % activity on HSV-1 GFP signal ([1]; 0.123457 µM, model: submerged) | % activity on HSV-1 GFP signal ([1]; 0.37037 µM, model: ALI) | % activity on HSV-1 GFP signal ([1]; 0.37037 µM, model: submerged) | % activity on HSV-1 GFP signal ([1]; 1.111111 µM, model: ALI) | % activity on HSV-1 GFP signal ([1]; 1.111111 µM, model: submerged) | % activity on HSV-1 GFP signal ([1]; 3.33333 µM, model: ALI) | % activity on HSV-1 GFP signal ([1]; 3.33333 µM, model: submerged) | % activity on HSV-1 GFP signal ([1]; 10 µM, model: ALI) | % activity on HSV-1 GFP signal ([1]; 10 µM, model: submerged) | % change of HSV-1 GFP signal ([2]; 0.003 µM, donor: 3) | % change of HSV-1 GFP signal ([2]; 0.0091 µM, donor: 3) | % change of HSV-1 GFP signal ([2]; 0.0091 µM, donor: 4) | % change of HSV-1 GFP signal ([2]; 0.0274 µM, donor: 3) | % change of HSV-1 GFP signal ([2]; 0.0274 µM, donor: 4) | % change of HSV-1 GFP signal ([2]; 0.0823 µM, donor: 3) | % change of HSV-1 GFP signal ([2]; 0.0823 µM, donor: 4) | % change of HSV-1 GFP signal ([2]; 0.2469 µM, donor: 3) | % change of HSV-1 GFP signal ([2]; 0.2469 µM, donor: 4) | % change of HSV-1 GFP signal ([2]; 0.7407 µM, donor: 3) | % change of HSV-1 GFP signal ([2]; 0.7407 µM, donor: 4) | % change of HSV-1 GFP signal ([2]; 2.2222 µM, donor: 3) | % change of HSV-1 GFP signal ([2]; 2.2222 µM, donor: 4) | % change of HSV-1 GFP signal ([2]; 6.6667 µM, donor: 3) | % change of HSV-1 GFP signal ([2]; 6.6667 µM, donor: 4) | % change of HSV-1 GFP signal ([2]; 20 µM, donor: 3) | % change of HSV-1 GFP signal ([2]; 20 µM, donor: 4) | % change of HSV-1 GFP signal ([2]; 60 µM, donor: 3) | % change of HSV-1 GFP signal ([2]; 60 µM, donor: 4) | % change of HSV-1 GFP signal ([2]; 0.001 µM, donor: 3) | % change of HSV-1 GFP signal ([2]; 0.001 µM, donor: 4) | % change of HSV-1 GFP signal ([2]; 0.003 µM, donor: 4)
CC(C)c1cnn2c(NCc3ccccc3-n3cccn3)nc(OC3CCCNC3)nc12 (stereo not given) [LDC4297] | -23.3 ± 22% | -10.7 ± 1.2% | -67.2 ± 25% | -16.1 ± 16% | -88.4 ± 7.3% | -44.7 ± 10% | -99.9 ± 9.8% | -54.4 ± 2.2% | -105 ± 10% | -74.5 ± 4.4% | -99.9 ± 9.1% | -94.8 ± 1% | 20.9 ± 32% | 21.8 ± 34% | 2.39 ± 18% | 21.6 ± 34% | 1.27 ± 22% | 14.2 ± 35% | -5.21 ± 23% | -5.39 ± 37% | -24 ± 20% | -27.1 ± 25% | -34.7 ± 12% | -57.2 ± 13% | -53.3 ± 1.5% | -98.3 ± 1.2% | -92.4 ± 3.9% | -100.3 ± 0.64% | -99.916 ± 0.033% | -100.3 ± 0.73% | -99.83 ± 0.18% | – | – | –
C=CC(=O)N1CC/C(=C\c2ccc(F)c([N+](=O)[O-])c2)C(=O)/C(=C/c2ccc(F)c([N+](=O)[O-])c2)C1 [VLX1570] | 12.8 ± 28% | -7.34 ± 8.2% | -18.6 ± 41% | -4.05 ± 10% | -96 ± 7.7% | -5.03 ± 10% | -97.3 ± 12% | -4.45 ± 10% | -103 ± 6.2% | -17.6 ± 2.2% | -101 ± 7.7% | -55.5 ± 12% | – | – | – | – | – | – | – | – | – | – | – | – | – | – | – | – | – | – | – | – | – | –
O=C(/C=C\n1cnc(-c2cc(C(F)(F)F)cc(C(F)(F)F)c2)n1)NNc1ccccn1 [Verdinexor] | 22.5 ± 12% | -2.17 ± 3% | -30.1 ± 23% | -37 ± 12% | -82.5 ± 16% | -41.1 ± 7.8% | -92.6 ± 9.2% | -56.4 ± 6.4% | -105 ± 2.9% | -65.7 ± 3.8% | -108 ± 8% | -68.6 ± 7.5% | 3.24 ± 5.4% | 5.63 ± 4.6% | -5.59 ± 9.3% | 3.47 ± 1.8% | -11.5 ± 8.2% | -1.6 ± 11% | -10.8 ± 5.7% | -1.84 ± 3.6% | -12 ± 2.1% | -13.6 ± 4% | -15.2 ± 4.7% | -31.7 ± 6% | -33.3 ± 11% | -34.8 ± 8.4% | -32.3 ± 15% | -49 ± 24% | -21.8 ± 2.3% | – | – | 2.8 ± 12% | -3.59 ± 3.6% | -6.87 ± 5.1%
O=C(Nc1ccc([N+](=O)[O-])cc1Cl)c1cc(Cl)ccc1O [Niclosamide] | -0.742 ± 32% | -3.85 ± 2.1% | -58.6 ± 25% | -3.15 ± 5.5% | -102 ± 3.3% | -59.6 ± 40% | -99.3 ± 8.7% | -88.3 ± 8.2% | -103 ± 18% | -92.9 ± 5.1% | -98.7 ± 4.3% | -97.1 ± 6.4% | 15.6 ± 15% | 8.69 ± 12% | -8.38 ± 4.5% | 9.83 ± 17% | -13.9 ± 6.8% | -4.14 ± 13% | -18.7 ± 8.7% | -45.2 ± 31% | -48.5 ± 15% | -76.3 ± 20% | -63.1 ± 35% | -89.3 ± 9.7% | -95.5 ± 6.9% | -99.57 ± 0.93% | -99.828 ± 0.074% | -100.1 ± 0.58% | -99.921 ± 0.007% | -100.1 ± 0.63% | -99.98 ± 0.017% | – | – | -6.77 ± 3.6%
Nc1ccn([C@@H]2O[C@H](CO)[C@@H](O)C2(F)F)c(=O)n1 [Gemcitabine] | -11.7 ± 50% | -9.74 ± 4.5% | -37.9 ± 9.5% | -26.5 ± 9% | -102 ± 1.4% | -92.4 ± 1.9% | -106 ± 8.3% | -97 ± 2.7% | -99.4 ± 8.2% | -99 ± 3.6% | -102 ± 5.1% | -99.8 ± 4.7% | 2.52 ± 8% | 1.9 ± 13% | -1.82 ± 3.8% | -32.1 ± 10% | -16.7 ± 10% | -96.7 ± 3.6% | -78 ± 21% | -99.824 ± 0.023% | -96.4 ± 6% | -99.797 ± 0.099% | -99.75 ± 0.28% | -99.74 ± 0.14% | -99.81 ± 0.17% | -99.76 ± 0.19% | -99.83 ± 0.13% | -99.73 ± 0.18% | -99.907 ± 0.068% | – | – | 2.63 ± 9% | – | -2.11 ± 3.5%
CC(=O)O[C@H]1C[C@H](O[C@H]2[C@@H](O)C[C@H](O[C@H]3[C@@H](O)C[C@H](O[C@H]4CC[C@@]5(C)[C@H](CC[C@@H]6[C@@H]5C[C@@H](O)[C@]5(C)[C@@H](C7=CC(=O)OC7)CC[C@]65O)C4)O[C@@H]3C)O[C@@H]2C)O[C@H](C)[C@H]1O[C@@H]1O[C@H](CO)[C@@H](O)[C@H](O)[C@H]1O [Lanatoside C] | -34.1 ± 29% | -5.47 ± 10% | -95.2 ± 11% | -72.7 ± 1.2% | -105 ± 6.7% | -99.6 ± 2.2% | -104 ± 4.6% | -103 ± 3.2% | -104 ± 3.4% | -104 ± 3.9% | -99.5 ± 6.6% | -107 ± 5.8% | – | – | – | – | – | – | – | – | – | – | – | – | – | – | – | – | – | – | – | – | – | –
